Assay results reported in patent US20260184702A1, “SYNTHESIS, PHARMACOLOGY AND USE OF NEW WATER-SOLUBLE AND SELECTIVE FMS-LIKE TYROSINE KINASE3 (FLT3) INHIBITORS” (Universität Regensburg, priority 2022, published 2026).
Values after ≈ are worked out from the molar mass of the structure shown. Where two headings read alike, the source gives them in different places.

Columns and labels:
[1] = Solubility test by UV-Vis spectroscopy of saturated solutions; assay type: physicochemical; conditions: saturated solution; for solubility: thermodynamic from solid
Procedure: All UV-Vis measurements were carried out with an Agilent Cary 60 UV-Vis 2.00 between 800-200 nm. The absorbance was measured with a scan rate of 300.0 nm/min, a data interval of 0.50 nm and an UV-Vis Average Time of 0.10 s. For all measurements a cuvette with 10 mm light path was used. A calibration curve was plotted from several different concentrations and the solubility of the respective compound was determined by measuring the absorbance of a diluted saturated solution. As a blank curve a mixture of ultrapure water and ethanol in a ratio of 1:1 or 5:95 was recorded. For the calibration curve a 100 μM or a 10 μM solution of the compound in an ultrapure water:ethanol (1:1) or (5:95)-mixture was prepared and diluted to obtain at least 6 concentrations. […] The supernatant was taken using a syringe and filtered through a syringe filter (RC Membrane). The saturated solution was diluted with ultrapure water and ethanol to obtain an appropriate concentration in a water:ethanol (1:1) or (5:95)-mixture. The long wave absorbance maximum was used for determination of the solubility (mean values, determination in triplicate). […] By plotting the concentration of the solution against the absorbance values at the previously determined wavelength maximum a calibration curve was obtained (FIG. 1B).

human FLT3-ITD = target: T1, human FLT3-ITD (Homo sapiens, UniProt P36888); test: Enzymatic kinase assay FLT3 (ITD), 10-dose IC50 mode (Reaction Biology); assay type: biochemical
T1 sequence (P36888 1-993): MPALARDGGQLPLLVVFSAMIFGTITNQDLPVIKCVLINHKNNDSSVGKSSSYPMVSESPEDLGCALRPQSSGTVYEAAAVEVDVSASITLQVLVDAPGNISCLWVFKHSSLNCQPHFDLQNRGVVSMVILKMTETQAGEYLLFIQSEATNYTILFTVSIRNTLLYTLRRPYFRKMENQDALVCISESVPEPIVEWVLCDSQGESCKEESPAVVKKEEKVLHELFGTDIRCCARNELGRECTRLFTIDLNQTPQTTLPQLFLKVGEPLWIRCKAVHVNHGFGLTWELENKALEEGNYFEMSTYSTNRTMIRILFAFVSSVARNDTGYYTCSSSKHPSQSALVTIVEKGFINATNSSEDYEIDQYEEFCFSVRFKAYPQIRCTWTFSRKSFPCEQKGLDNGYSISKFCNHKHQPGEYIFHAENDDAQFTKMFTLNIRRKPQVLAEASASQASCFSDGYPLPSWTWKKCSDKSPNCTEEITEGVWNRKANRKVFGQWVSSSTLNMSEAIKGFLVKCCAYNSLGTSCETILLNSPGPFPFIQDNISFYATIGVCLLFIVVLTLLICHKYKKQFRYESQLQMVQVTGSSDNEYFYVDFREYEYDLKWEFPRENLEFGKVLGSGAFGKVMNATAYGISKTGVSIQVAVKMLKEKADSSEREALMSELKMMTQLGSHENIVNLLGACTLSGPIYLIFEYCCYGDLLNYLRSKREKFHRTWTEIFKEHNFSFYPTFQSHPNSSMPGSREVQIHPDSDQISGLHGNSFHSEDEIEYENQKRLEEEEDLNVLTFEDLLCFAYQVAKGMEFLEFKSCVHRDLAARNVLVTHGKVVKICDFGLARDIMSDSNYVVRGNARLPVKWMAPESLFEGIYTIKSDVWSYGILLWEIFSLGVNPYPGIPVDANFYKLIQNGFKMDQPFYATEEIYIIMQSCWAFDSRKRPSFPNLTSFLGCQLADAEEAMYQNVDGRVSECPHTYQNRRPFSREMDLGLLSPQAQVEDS

[2] = target: T2, recombinant human FLT3 (D835Y) (Homo sapiens, UniProt P36888, D835Y); test: Enzymatic kinase assay FLT3 (D835Y), 10-dose IC50 mode (Reaction Biology); assay type: biochemical; conditions: 10 μM ATP
T2 construct: purchased Reaction Biology
T2 sequence (P36888 27-993 D835Y): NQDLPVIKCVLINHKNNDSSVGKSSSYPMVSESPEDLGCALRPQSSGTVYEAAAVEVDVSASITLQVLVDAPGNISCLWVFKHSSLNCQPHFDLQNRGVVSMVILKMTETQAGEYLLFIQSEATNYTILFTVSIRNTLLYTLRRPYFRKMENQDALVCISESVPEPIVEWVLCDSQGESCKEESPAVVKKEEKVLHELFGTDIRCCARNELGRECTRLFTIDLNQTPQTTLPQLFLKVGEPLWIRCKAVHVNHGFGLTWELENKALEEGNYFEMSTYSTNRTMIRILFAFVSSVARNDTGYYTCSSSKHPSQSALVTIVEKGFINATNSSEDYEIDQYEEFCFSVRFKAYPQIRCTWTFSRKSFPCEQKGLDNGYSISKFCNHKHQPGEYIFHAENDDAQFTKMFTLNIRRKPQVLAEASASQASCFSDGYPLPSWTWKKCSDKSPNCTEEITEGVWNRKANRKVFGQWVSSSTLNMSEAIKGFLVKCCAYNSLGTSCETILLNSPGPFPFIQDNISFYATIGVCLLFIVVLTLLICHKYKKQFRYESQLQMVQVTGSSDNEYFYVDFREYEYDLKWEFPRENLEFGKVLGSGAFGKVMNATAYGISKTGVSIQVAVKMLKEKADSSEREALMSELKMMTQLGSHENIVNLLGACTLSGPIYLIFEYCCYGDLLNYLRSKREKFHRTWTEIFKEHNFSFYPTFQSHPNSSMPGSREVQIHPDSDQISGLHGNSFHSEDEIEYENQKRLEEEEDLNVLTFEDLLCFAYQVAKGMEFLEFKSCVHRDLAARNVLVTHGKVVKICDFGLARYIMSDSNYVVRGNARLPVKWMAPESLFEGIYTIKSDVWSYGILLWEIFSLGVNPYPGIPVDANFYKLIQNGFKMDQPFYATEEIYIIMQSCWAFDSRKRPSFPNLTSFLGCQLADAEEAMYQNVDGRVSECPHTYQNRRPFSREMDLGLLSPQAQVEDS

[3] = Solubility test by UV-Vis spectroscopy of saturated solutions; assay type: physicochemical; conditions: solvent DMSO
[4] = test system: MV4-11 cells (FLT3-ITD positive); test: Cell Titer-Glo proliferation assay with MV4-11 cells; assay type: cell-based; conditions: Homo sapiens, MV4-11, 72 h
Procedure: MV4-11 cells are human acute myeloid leukemia cell lines that carry a FLT3-ITD mutation (American Type Culture Collection, ATCC, Manassas, VA, United States). Cells were cultured in IMDM medium plus 100 μg/mL penicillin, 100 μg/mL streptomycin and 10% FBS. All cells were kept at 37° C., 5% CO2.
Cell proliferation was assessed with Cell Titer-Glo® Viability Assay (Promega; Madison, WI, United States) according to the manufacturer's instructions.

[5] = ethanol, organic solvent or mixture, ethanol, read-out: Solubility Ethanol
[6] = ultrapure water, water, ultrapure water, read-out: Solubility Water
[7] = 10 μM ATP; read-out: IC50 FLT3 (ITD)

Row | solubility [1, 5] | solubility [1, 6] | IC50 (human FLT3-ITD; [7]) | IC50 ([2]; read-out: IC50 FLT3 (D835Y)) | Solubility DMSO [3] | IC50 ([4]; read-out: IC50 MV4-11 cells) | Solubility Ethanol ([1]; ethanol) | Solubility Water ([1]; ultrapure water) | Compound | IC50 ([4]; read-out: IC50 MV4-11 cells [nM]) | IC50 (human FLT3-ITD; read-out: IC50 FLT3 (ITD); 10 μM ATP; bis(2,2,2-trifluoroacetate)) | IC50 ([2]; IC50 FLT3 (D835Y) [nM]) | IC50 (human FLT3-ITD; read-out: IC50 FLT3 (ITD); 10 μM ATP)
1 | 4670 µg/mL (≈ 8180 µM) | < 100 µg/mL | 0.81 nM | 3.83 nM | Soluble |  |  |  | CN1CCN(Cc2c(O)ccc3[nH]c(C(=O)c4cc5cc(NC(=O)Nc6cc(C(C)(C)C)on6)ccc5o4)cc23)CC1 [Compound 33a, 1-(5-(tert-Butyl)isoxazol-3-yl)-3-(2-(5-hydroxy-4-((4-methylpiperazin-1-yl)methyl)-1H-indole-2-carbonyl)benzofuran-5-yl)urea] |  |  |  | 
2 | 2540 µg/mL (≈ 4160 µM) | 220 µg/mL (≈ 360 µM) | 1.47 nM | 10.8 nM | Soluble | 0.17 nM |  |  | C=CC(=O)N1CCN(Cc2c(O)ccc3[nH]c(C(=O)c4cc5cc(NC(=O)Nc6cc(C(C)(C)C)on6)ccc5o4)cc23)CC1 [Compound 56b, 1-(2-(4-((4-Acryloylpiperazin-1-yl)methyl)-5-hydroxy-1H-indole-2-carbonyl)benzofuran-5-yl)-3-(5-(tert-butyl)isoxazole-3-yl)urea 2,2,2-trifluoroacetate] |  |  |  | 
3 |  |  | 4.36 nM |  |  | 0.24 nM |  |  | C/C=C/C(=O)N1CCN(Cc2c(O)ccc3[nH]c(C(=O)c4cc5cc(NC(=O)Nc6cc(C(C)(C)C)on6)ccc5o4)cc23)CC1 [Compound 57a, 1-(2-(4-((4-(But-2-enoyl)piperazin-1-yl)methyl)-5-hydroxy-1H-indole-2-carbonyl)benzofuran-5-yl)-3-(5-(tert-butyl)isoxazole-3-yl)urea] |  |  |  | 
4 |  | < 100 µg/mL | 1.28 nM | 4.23 nM | Soluble | 0.13 nM | 970 µg/mL (≈ 1660 µM) |  | CCN1CCN(Cc2c(O)ccc3[nH]c(C(=O)c4cc5cc(NC(=O)Nc6cc(C(C)(C)C)on6)ccc5o4)cc23)CC1 [Compound 69a, 1-(5-(tert-Butyl)isoxazol-3-yl)-3-(2-(4-((4-ethylpiperazin-1-yl)methyl)-5-hydroxy-1H-indole-2-carbonyl)benzofuran-5-yl)urea] |  |  |  | 
5 | 920 µg/mL (≈ 1540 µM) |  | 1.98 nM | 2.6 nM | Soluble | 0.31 nM |  | <100 µg/mL | CC(C)N1CCN(Cc2c(O)ccc3[nH]c(C(=O)c4cc5cc(NC(=O)Nc6cc(C(C)(C)C)on6)ccc5o4)cc23)CC1 [Compound 70a, 1-(5-(tert-Butyl)isoxazol-3-yl)-3-(2-(5-hydroxy-4-((4-isopropylpiperazin-1-yl)methyl)-1H-indole-2-carbonyl)benzofuran-5-yl)urea] |  |  |  | 

Continued, compound first:

Row | Compound | solubility [1, 5] | solubility [1, 6] | IC50 (human FLT3-ITD; [7]) | IC50 ([2]; read-out: IC50 FLT3 (D835Y)) | Solubility DMSO [3] | IC50 ([4]; read-out: IC50 MV4-11 cells) | Solubility Ethanol ([1]; ethanol) | Solubility Water ([1]; ultrapure water) | IC50 ([4]; read-out: IC50 MV4-11 cells [nM]) | IC50 (human FLT3-ITD; read-out: IC50 FLT3 (ITD); 10 μM ATP; bis(2,2,2-trifluoroacetate)) | IC50 ([2]; IC50 FLT3 (D835Y) [nM]) | IC50 (human FLT3-ITD; read-out: IC50 FLT3 (ITD); 10 μM ATP)
6 | CC(C)(C)c1cc(NC(=O)Nc2ccc3oc(C(=O)c4cc5c(CN6CCOCC6)c(OC(=O)N6CCC(N7CCCCC7)CC6)ccc5[nH]4)cc3c2)no1 [Compound 38b, 2-(5-(3-(5-(tert-Butyl)isoxazol-3-yl)ureido)benzofuran-2-carbonyl)-4-(morpholinomethyl)-1H-indol-5-yl[1,4′-bipiperidine]-1′-carboxylate bis(2,2,2-trifluoroacetate)] |  |  |  |  |  |  |  |  | 0.38 nM | 1.29 nM | 6.63 nM | 
7 | CN1CCN(Cc2c(OC(=O)N3CCC(N4CCCCC4)CC3)ccc3[nH]c(C(=O)c4cc5cc(NC(=O)Nc6cc(C(C)(C)C)on6)ccc5o4)cc23)CC1 [Compound 41a, 2-(5-(3-(5-(tert-Butyl)isoxazol-3-yl)ureido)benzofuran-2-carbonyl)-4-((4-methylpiperazin-1-yl)methyl)-1H-indol-5-yl [1,4′-bipiperidine]-1′-carboxylate] |  |  |  |  |  |  |  |  |  |  | 2.46 nM | 0.7 nM
8 | CC(C)(C)c1cc(NC(=O)Nc2ccc3oc(C(=O)c4cc5c(CN6CCNCC6)c(O)ccc5[nH]4)cc3c2)no1 [Compound 55b, 1-(5-(tert-Butyl)isoxazol-3-yl)-3-(2-(5-hydroxy-4-(piperazin-1-ylmethyl)-1H-indole-2-carbonyl)benzofuran-5-yl)urea bis(2,2,2-trifluoroacetate)] | 1140 µg/mL (≈ 2050 µM) | < 100 µg/mL | 3.36 nM | 9.55 nM | Soluble | 0.42 nM |  |  |  |  |  | 
